In patent US20090123565A9, “Copper-dependent non-traditional pro-inflammatory cytokine export and methods, compositions and kits relating thereto” (Maine Medical Center Research Institute, priority 2001, published 2009):
Starred links: 1 amine or outer side, 2 acyl side, 3 side chain; linkers in the order of their positions; H or OH if unused. Positions of bridges follow the written chain, without caps; N, C: chain ends. Non-standard residues stand in square brackets, D forms with d. Residues, ends and D or L forms follow the SMILES beside them. Chains are numbered I, II in the order given. Actinocin(9to1) = Cc1c2oc3c(C)ccc(C(=O)[*:1])c3nc-2c(C(=O)[*:2])c(N)c1=O; NMeV = CN[C@H](C(=O)O)C(C)C; Sar = CNCC(=O)O

System: IL1α release from NIH 3T3 cell transfectants
Assay: Heat shock-induced release of IL1α from NIH 3T3 cell transfectants (immunoblot of conditioned media)
Type: cell-based, human
Conditions: actinomycin D 10 μg/ml
Method: FIG. 5, comprising FIGS. 5A and 5B, depict the involvement of Cu^2+ in IL1α release. FIG. 5A is an image depicting results obtained using NIH 3T3 cells stably transfected with mIL1α-βGal. The cells were incubated for 18 hours at 37 C in the absence and presence of the Cu^2+ chelator, tetrathiomolybdate (TTM) as indicated and the untreated and treated cells either maintained at 37 C or subjected to heat shock as described in FIG. 3. The conditioned medium was evaluated for IL1α-βGal release by IL1α immunoblot analysis, and cell lysates from TTM-treated cells were used to monitor the intracellular level of IL1α-βGal expression. […] FIG. 5B is an image depicting release of IL1α-βGal in myc-S100A13 and IL1α-βGal NIH 3T3 cell cotransfectants and in insert-less vector and mIL1α-βGal NIH 3T3 cell transfectants in the presence and absence actinomycin D (10 μg/ml), as indicated, in response to heat shock. Conditioned media were processed and evaluated for IL1α-βGal immunoblot analysis as described in Tarantini et al. (2001).
Stable NIH 3T3 cell transfectants were generated accordingly with the following cDNA constructs cloned into pMEXneo (Tarantini, et al. 2001; Tarantini, et al. 1995; Tarantini, et al. 1998; LaVallee, et al. 1998; Carreira, et al. 1998; Landriscina, et al., 2001): human S100A13 with an amino-terminal fusion to a 6 Myc Tag (Myc-S100A13) (Landriscina, et al., 2001); human Myc-S100A13ΔBR (Landriscina, et al., 2001); human mIL1α (residues 113-271); human mIL1α with a carboxy-terminal fusion to a βGalactosidase tag (mIL1α-βGal) (Tarantini, et al. 2001); and pIL1α (residues 1-271) with a carboxy-terminal fusion to βGalactosidase (pIL1α-βGal) (Tarantini, et al. 2001). Recombinant human mIL1α was provided by Hoffmann-LaRoche. Recombinant human S100A13, as well as S100A13ΔBR, a S100A13 construct with the basic residue rich domain (residues 88 to 98) deleted, were generated as previously described (Landriscina, et al., 2001).
NIH 3T3 cell transfectants were grown to 70-80% confluency and prior to temperature stress, the cells were washed with serum-free DMEM. The heat shock was performed as previously described (Tarantini et al., 1995) in serum-free DMEM for 110 min at 42° C. Control cultures were incubated at 37° C. in serum-free DMEM. […] Immunoprecipitated and eluted proteins were resolved by 8% and 12% acrylamide SDS-PAGE, respectively, and evaluated by either IL1α (Tarantini, et al. 2001) or Myc (Landriscina, et al., 2001) immunoblot analysis. […] The effects of actinomycin D (Sigma Chemical Co., St. Louis, Mo.), cyclohexamide (Sigma) and tetrathiomolybdate (Sigma-Aldrich) on IL1α release were evaluated as previously reported (LaVallee et al., 1998).

SMILES: Cc1c2oc3c(C)ccc(C(=O)N[C@@H]4C(=O)N[C@H](C(C)C)C(=O)N5CCC[C@H]5C(=O)N(C)CC(=O)N(C)[C@@H](C(C)C)C(=O)O[C@@H]4C)c3nc-2c(C(=O)N[C@@H]2C(=O)N[C@H](C(C)C)C(=O)N3CCC[C@H]3C(=O)N(C)CC(=O)N(C)[C@@H](C(C)C)C(=O)O[C@@H]2C)c(N)c1=O [actinomycin D] (I: T[dV]P[Sar][NMeV] / II: T[dV]P[Sar][NMeV]; ester I:1-I:C, II:1-II:C; linker I:N-II:N via Actinocin(9to1))
- repression of export of IL1α-βGal in response to heat shock (Myc-S100A13 and IL1α-βGal NIH 3T3 cell cotransfectants): unable to repress
- repression of release of IL1α-βGal in response to heat shock (insert-less vector and IL1α-βGal NIH 3T3 cell cotransfectants): able to repress
